We go through one compound from ChEMBL document CHEMBL4680193, “Isoindoline scaffold-based dual inhibitors of HDAC6 and HSP90 suppressing the growth of lung cancer in vitro and in vivo” (Eur J Med Chem, 2020).

SMILES strings stand for the structures. Active and inactive are the calls of the source. The calls are words filed in the database; no cut-off is given here.

One data set concerns A549. As to the kind of experiment: Growth inhibition of human A549 cells incubated for 48 hrs by SRB assay. The class given is functional. The note with it: Homo sapiens, A549.
For data set [1], the system named is NCI-H1975. The data set is described as follows: Induction of apoptosis in human NCI-H1975 cells assessed as increase in gammaH2AX activation incubated for 48 hrs by PI staining based Western blot analysis. It is filed as functional, cell-based. The note with it: dose 0.1-3 µM.
Data set [2] has as its system NCI-H1975. The data set is described as follows: Induction of apoptosis in human NCI-H1975 cells assessed as increase in caspase 8 activation incubated for 48 hrs by PI staining based Western blot analysis. The class given is functional, cell-based. The note with it: dose 0.1-3 µM.
Another data set addresses Histone deacetylase 3 (Homo sapiens, UniProt O15379).
The target of data set [3] is T1, Heat shock protein HSP90 (Homo sapiens) (UniProt P07900+P08238). As to the kind of experiment: Inhibition of HSP90 in human NCI-H1975 cells assessed as decrease in STAT3 Tyr705 phosphorylation at 3 uM measured after 12 hrs by Western blot analysis. It is filed as cell-based.
In the next data set the target is Histone deacetylase 1 (Homo sapiens, UniProt Q13547). As to the kind of experiment: Inhibition of recombinant human C-terminal FLAG-His-tagged HDAC1 (1 to 482 residues) expressed in Sf21 cells using RHK-K(Ac)-AMC as substrate incubated for 60 mins by fluorimetry analysis.
Histone deacetylase 1, sequence (Q13547 whole entry, the tested form may be a part): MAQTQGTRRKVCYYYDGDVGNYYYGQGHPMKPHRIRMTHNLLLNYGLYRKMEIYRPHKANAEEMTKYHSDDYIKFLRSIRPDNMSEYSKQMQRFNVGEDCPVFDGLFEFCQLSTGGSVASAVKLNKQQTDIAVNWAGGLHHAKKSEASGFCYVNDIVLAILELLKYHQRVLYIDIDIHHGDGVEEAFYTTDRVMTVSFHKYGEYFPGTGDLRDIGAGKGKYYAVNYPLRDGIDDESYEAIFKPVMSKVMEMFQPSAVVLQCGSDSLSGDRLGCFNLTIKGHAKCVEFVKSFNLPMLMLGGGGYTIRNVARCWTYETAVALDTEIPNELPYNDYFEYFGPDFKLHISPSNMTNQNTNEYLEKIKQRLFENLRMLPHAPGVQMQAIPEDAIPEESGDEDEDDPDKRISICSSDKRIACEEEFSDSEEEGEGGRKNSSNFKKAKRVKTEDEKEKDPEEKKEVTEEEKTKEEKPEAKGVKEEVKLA
Data set [4] deals with NCI-H1975. As to the kind of experiment: Inhibition of IFN-gamma-induced PD-L1 in human NCI-H1975 cells at 0.3 uM incubated for 48 hrs by Flow cytometry analysis. The class given is functional, cell-based.
Another data set has as its target Histone deacetylase. The class given is tissue-based, Homo sapiens. The note with it: hela.
Data set [5] concerns NCI-H1975. The data set is described as follows: Antitumor activity against human NCI-H1975 cells xenografted in BALB/c mouse assessed as reduction in tumor growth at 100 mg/kg, ip administered for 2 weeks and measured after 2 week relative to control. The conditions noted are these: 336 h, read-out: TGI. It is filed as functional.
The species entered for data set [6] is Homo sapiens. As to the kind of experiment: Selectivity index, ratio of IC50 for recombinant human HDAC8 to IC50 for recombinant human HDAC6.
Data set [7] has as its target T2, Protein deacetylase HDAC6 (Homo sapiens) (UniProt Q9UBN7).
T2 sequence (whole entry): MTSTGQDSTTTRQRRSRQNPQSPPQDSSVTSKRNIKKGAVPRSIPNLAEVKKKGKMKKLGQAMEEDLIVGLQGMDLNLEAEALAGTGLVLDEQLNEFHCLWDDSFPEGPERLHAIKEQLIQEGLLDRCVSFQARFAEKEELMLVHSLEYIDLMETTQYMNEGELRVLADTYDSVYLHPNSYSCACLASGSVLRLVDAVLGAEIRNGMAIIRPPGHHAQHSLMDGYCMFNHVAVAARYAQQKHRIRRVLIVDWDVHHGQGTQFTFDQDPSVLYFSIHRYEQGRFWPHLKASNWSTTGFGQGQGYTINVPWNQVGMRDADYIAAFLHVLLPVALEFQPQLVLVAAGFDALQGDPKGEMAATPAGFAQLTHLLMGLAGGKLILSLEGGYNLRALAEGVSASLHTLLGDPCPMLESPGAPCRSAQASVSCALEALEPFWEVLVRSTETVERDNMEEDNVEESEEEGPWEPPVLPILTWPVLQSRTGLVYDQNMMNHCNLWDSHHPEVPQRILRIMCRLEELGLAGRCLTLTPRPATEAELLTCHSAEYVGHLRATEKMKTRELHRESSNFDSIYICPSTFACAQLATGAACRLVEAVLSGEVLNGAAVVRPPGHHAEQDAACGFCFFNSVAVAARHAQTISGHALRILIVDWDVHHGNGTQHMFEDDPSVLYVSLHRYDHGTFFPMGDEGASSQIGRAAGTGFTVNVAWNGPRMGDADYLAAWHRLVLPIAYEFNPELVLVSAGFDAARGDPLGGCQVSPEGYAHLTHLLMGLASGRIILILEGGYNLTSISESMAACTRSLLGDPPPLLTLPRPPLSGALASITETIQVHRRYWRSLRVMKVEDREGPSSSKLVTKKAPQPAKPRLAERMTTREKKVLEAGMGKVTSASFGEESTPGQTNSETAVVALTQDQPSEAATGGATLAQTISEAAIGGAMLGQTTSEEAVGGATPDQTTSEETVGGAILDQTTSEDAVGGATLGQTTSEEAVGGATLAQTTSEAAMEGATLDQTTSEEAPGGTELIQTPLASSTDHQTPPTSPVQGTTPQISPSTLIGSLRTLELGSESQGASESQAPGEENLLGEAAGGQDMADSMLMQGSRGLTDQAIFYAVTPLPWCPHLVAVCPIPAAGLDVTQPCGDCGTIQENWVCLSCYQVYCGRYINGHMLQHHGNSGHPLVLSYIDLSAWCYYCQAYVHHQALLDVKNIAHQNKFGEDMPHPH
As to the kind of experiment: Inhibition of HDAC6 in human NCI-H1975 cells assessed as increase in acetylated alpha tubulin level after 24 hrs by Western blot analysis. The class given is cell-based. The conditions noted are these: dose 0.1-3 µM.

In data set [8] the test system is NCI-H1975. As to the kind of experiment: Induction of cell cycle arrest in human NCI-H1975 cells assessed as increase in subG1 phase at 0.1 to 3 uM incubated for 48 hrs by PI staining based flow cytometry analysis. The class given is functional. The note with it: dose 0.1-3 µM.
The species entered for data set [9] is Homo sapiens. The data set is described as follows: Selectivity index, ratio of IC50 for recombinant human C-terminal FLAG-His-tagged HDAC1 (1 to 482 residues) expressed in Sf21 cells to IC50 for recombinant human HDAC6.
Data set [10] deals with T1, Heat shock protein HSP90 (Homo sapiens). As to the kind of experiment: Inhibition of HSP90 in human NCI-H1975 cells assessed as downregulation of Akt expression at 0.03 to 0.3 uM measured upto 24 hrs by Western blot analysis. It is filed as cell-based. The note with it: dose 0.03-0.3 µM, time hrs <=24.
The target is the same in data set [11]. As to the kind of experiment: Inhibition of HSP90 in human NCI-H1975 cells assessed as decrease in Akt Ser473 phosphorylation at 3 uM measured after 6 hrs by Western blot analysis. The class given is cell-based.
Data set [12] in a line: Toxicity in BALB/c mouse xenografted with human NCI-H1975 cells assessed as reduction in body weight 50 to 100 mg/kg, ip administered for 2 weeks and measured after 2 week. The conditions noted are these: in vivo, 336 h, dose 50-100 mg/kg. The class given is organism-based.
In data set [13] the target is Heat shock protein HSP 90-alpha (Homo sapiens, UniProt P07900). As to the kind of experiment: Inhibition of HSP90a (unknown origin).
The subject of data set [14] is NCI-H1975. As to the kind of experiment: Antitumor activity against human NCI-H1975 cells xenografted in BALB/c mouse assessed as reduction in tumor volume at 50 mg/kg, ip administered for 2 weeks and measured after 2 week. The class given is functional, organism-based.
The test system of data set [15] is NCI-H1975. The data set is described as follows: Antitumor activity against human NCI-H1975 cells xenografted in BALB/c mouse assessed as reduction in tumor growth at 50 mg/kg, ip administered for 2 weeks and measured after 2 week relative to control. The class given is functional. The conditions noted are these: 336 h, read-out: TGI.
In data set [16] the test system is NCI-H1975. The data set is described as follows: Induction of apoptosis in human NCI-H1975 cells assessed as increase in PARP activation incubated for 48 hrs by PI staining based Western blot analysis. The conditions noted are these: dose 0.1-3 µM. It is filed as functional, cell-based.
Data set [17] relates to NCI-H1975. The data set is described as follows: cells. The class given is functional. The note with it: Homo sapiens, time 48 hrs.
For data set [18], the species on record is Homo sapiens. As to the kind of experiment: Selectivity index, ratio of IC50 for recombinant human HDAC3 to IC50 for recombinant human HDAC6.

Histone deacetylase 3, sequence (O15379 whole entry): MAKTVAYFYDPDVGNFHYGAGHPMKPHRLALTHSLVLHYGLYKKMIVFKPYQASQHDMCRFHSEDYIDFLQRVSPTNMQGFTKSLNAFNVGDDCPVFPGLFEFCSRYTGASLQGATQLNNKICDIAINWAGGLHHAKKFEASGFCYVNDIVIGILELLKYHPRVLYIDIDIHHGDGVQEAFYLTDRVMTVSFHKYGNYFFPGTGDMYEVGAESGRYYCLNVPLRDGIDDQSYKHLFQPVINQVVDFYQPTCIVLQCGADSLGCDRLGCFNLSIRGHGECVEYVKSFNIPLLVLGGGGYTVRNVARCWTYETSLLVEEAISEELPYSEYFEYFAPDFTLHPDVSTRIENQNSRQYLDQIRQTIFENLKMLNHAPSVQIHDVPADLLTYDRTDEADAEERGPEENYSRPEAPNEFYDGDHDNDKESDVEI

Take `CC(C)c1cc(C(=O)N2Cc3ccc(NC(=O)CCCCCCCCC(=O)NO)cc3C2)c(O)cc1O`: the 50% growth inhibitory concentration (GI50) in the data set on A549 worked out at 760 nM; in the data set on NCI-H1975 [17], 520 nM. Moreover, the Activity result is “Dose-dependent effect” in the data set on NCI-H1975 [1], “Dose-dependent effect” with NCI-H1975 [2], “Non-Toxic” in data set [12] and “Dose-dependent effect” in the data set with NCI-H1975 [16]. Moreover, the IC50 is 1310 nM against Histone deacetylase 3, 1880 nM at Histone deacetylase 1, 388.8 nM on Histone deacetylase and 46.8 nM in data set [13]. Also, the inhibition result (in [3]; in the data set with NCI-H1975 [4]; in data set [10]; in data set [11]) was “Active” in each case. Besides, the inhibition in vivo at 100 mg/kg with NCI-H1975 [5] is 69.7%. Further, the figures for the Ratio IC50 in the data set filed under Homo sapiens [6], in the data set listed under Homo sapiens [9] and in the data set listed under Homo sapiens [18] were 861, 434 and 303, respectively. The inhibition entry in [7] is “Dose-dependent effect”. Further, the result with NCI-H1975 [8] and with NCI-H1975 [14] was Active. Besides, the inhibition in vivo at 50 mg/kg in the data set with NCI-H1975 [15] came to 44.8%.
